Test results as given in paper PMC11926788, “Effect of SSR504734, a Selective Glycine Transporter Type 1 Inhibitor, on Seizure Thresholds, Neurotransmitter Levels, and Inflammatory Markers in Mice” (ACS Chemical Neuroscience, 2025).
pIC50: −log10 of the molar value. Structures can show the parent of a compound that is named as a salt.

Tests used:
[1] = system: neuroblastoma SH-SY5Y cells; assay: Neurotoxicity, SH-SY5Y cell viability; format: cell-based
Experimental: (§1) A series of in vitro ADME-Tox tests were performed for SSR504734 in order to estimate its drugability. The ADME-Tox parameters including permeability, plasma protein binding, metabolic stability, neurotoxicity, and hepatotoxicity were carried out as described previously.[31],[32] The ability of SSR504734 to penetrate through the biological membrane by passive diffusion was estimated by the Gentest Precoated PAMPA Plate System (Corning, Tewksbury, MA) and expressed as the permeability coefficient (Pe). The protein binding analysis was performed by using the commercial TRANSIL^XL PPB test, which mimics in vitro physiological plasma conditions where human serum albumin (HAS) and alpha-1-acid glycoprotein AGP are present in a 24:1 ratio. The human metabolism of SSR504734 was studied using human liver microsomes (HLMs) provided by Sigma-Aldrich. The hepatotoxicity and neurotoxicity were estimated in cellular models with the use of hepatoma HepG2 and neuroblastoma SH-SY5Y cell lines to perform the preliminary safety tests. The cells were incubated with SSR504734 at the concentration range of 0.1–100 μM. 1 μM cytostatic drug doxorubicin (DX) was used as the reference.
(§2) Figure 8 Effect of cytostatic drug doxorubicin (DX) and SSR504734 on (A) hepatoma HepG2 and (B) neuroblastoma SH-SY5Y cell lines viability after 72 h of incubation at 37 °C, 5% CO2. Data are expressed as means ± SD. Statistical analysis: ****p < 0.0001 vs negative control −1% DMSO in growth media (one-way ANOVA, followed by Dunnett’s post hoc test).
(§3) Figure S8. The effect of cytostatic drug doxorubicin and SSR504734 on (A) hepatoma
(§4) HepG2 and (B) neuroblastoma SH-SY5Y cell line viability after 72 h of incubation at 37 °C,
(§5) 5% CO2. The IC50 values were calculated by GraphPad Prism 8.0.
(§6) (1 picture or pasted object on this page, not shown here)

[2] = Neurotoxicity, SH-SY5Y cell viability; format: cell-based; conditions: human, neuroblastoma SH-SY5Y cells; 50 μM, 72 h
Experimental: as §1, §2, §3, §4, §5, §6

[3] = system: 6 Hz-induced psychomotor seizures in mice; assay: 6 Hz-induced psychomotor seizure threshold test; format: in vivo; conditions: SSR504734 any of the doses tested, VPA 150 mg/kg
Experimental: Psychomotor seizures were induced through the application of rectangular pulses (0.2 ms width; 6 pulses per second) for 3 s using a Grass model CCU1 constant current unit coupled to a Grass S48 stimulator (Grass Technologies, Warwick, RI, USA). Stimuli were delivered via saline-soaked transcorneal electrodes. An ocular anesthetic (1% tetracaine hydrochloride) was administered on the animal’s corneas. Mice were restrained manually during stimulation and placed in transparent box immediately for behavioral observation. 6 Hz-induced seizures were characterized by head-nodding, chewing, eye-blinking, twitching of the vibrissae, rearing, stunned posture, forelimb clonus, and Straub tail. The absence of the described features or the return to normal exploratory behavior within 20 s poststimulation was considered as the absence of seizures. The 6 Hz seizure threshold test were conducted on groups of 20 animals stimulated with different current intensities by using the “up-and-down” method described by Kimball et al.[28]
The seizure threshold was quantified as the median current strength (CS50 value with confidence limits for 95% probability), predicting the induction of psychomotor seizures in 50% of the tested animals.

[4] = system: tonic hindlimb extension in the MEST test in rats; conditions: cited from earlier work
[5] = system: inflammatory markers in liver homogenates; assay: Inflammatory markers in liver (ELISA); format: in vivo, mice; conditions: 14-day administration, 30 mg/kg i.p.
Experimental: Samples of liver tissue were homogenized with a protease inhibitor solution (0.4 M NaCl, 0.05% Tween 20, 0.5% bovine serum albumin, 0.1 mM phenylmethylsulfonylfluoride, 0.1 mM benzethonium chloride, 10 mM EDTA, and 10 μg/mL aprotinin). Homogenates were centrifuged at 12,000 rpm at 4 °C, and supernatant fluids were collected and stored at −80 °C until analysis. The entire procedure was described by Zhao et al.[29]
ELISA kits were used to determine IL-1-β, IL-6, IL-10, TNF-α, and IFN-γ (EIAAB Science INC, Wuhan, Hubei, China, nos. E0563m, E0079m, E0056m, E0049m, E0133m, E0753m) and IL-18 (Biorbyt Ltd., Cambridge, United Kingdom, no. orb437211) in the liver homogenates and serum. All assays were performed according to the producer’s instructions. All samples were tested in triplicate.

Structure (SMILES): O=C(NC(c1ccccc1)C1CCCCN1)c1cccc(C(F)(F)F)c1Cl [SSR504734, 2-chloro-N-[(S)-phenyl[(2S)-piperidin-2-yl]methyl]-3-trifluoromethyl benzamide monohydrochloride]
- completely safe dose in the SH-SY5Y model ([1]; 72 h): 25 µM
- pIC50 ([1]; Homo sapiens, SH-SY5Y, 72 h of incubation): 4.42
- viability at 72 h, 50 µM [2]: ~30%
- effect on current intensity necessary to induce psychomotor seizures ([3]; 14-day administration i.p.): no statistically significant effect
- effect on current intensity necessary to induce psychomotor seizures ([3]; single administration i.p.): no statistically significant effect
- effect on threshold for tonic hindlimb extension [4]: strong, dose-dependent increase
- level of inflammatory markers in liver samples [5]: No statistically significant changes
